Measurements as given in the NIST ThermoML archive (doi:10.1021/acs.jced.8b01135).
Numbers after ± are expanded uncertainties.

Assay: xn = mol fraction of the nth substance listed
Conditions: 102 kPa, Liquid; for speed of sound: Frequency=3 MHz, Single path-length method; for mass density: Vibrating tube method; for viscosity: Concentric cylinders viscometry

CCCCCC1CCCCC1 [pentylcyclohexane] + CCCCCCCCCCCC
Conditions | mass density [kg/m3] | speed of sound [m/s] | viscosity [mPa·s]
288.15 K, x1 = 0.1009 | 757.14 ± 0.71 | 1321.1 ± 0.8 | –
288.15 K, x1 = 0.2001 | 761.98 ± 0.71 | 1324.9 ± 0.9 | –
288.15 K, x1 = 0.3003 | 767.03 ± 0.71 | 1329.1 ± 0.9 | –
288.15 K, x1 = 0.4009 | 772.26 ± 0.71 | 1333.4 ± 0.9 | –
288.15 K, x1 = 0.5001 | 777.64 ± 0.72 | 1338.1 ± 0.9 | –
288.15 K, x1 = 0.6 | 783.17 ± 0.72 | 1343 ± 1 | –
288.15 K, x1 = 0.7003 | 789 ± 0.72 | 1348.1 ± 1 | –
288.15 K, x1 = 0.8136 | 795.88 ± 0.72 | 1354.4 ± 1 | –
288.15 K, x1 = 0.9082 | 801.77 ± 0.72 | 1359.9 ± 1 | –
288.15 K, x1 = 1 | 807.78 ± 0.72 | 1365.8 ± 1.1 | –
293.15 K, x1 = 0.1009 | 753.52 ± 0.71 | 1301.6 ± 0.8 | 1.5 ± 0.02
293.15 K, x1 = 0.2001 | 758.36 ± 0.71 | 1305.5 ± 0.9 | 1.51 ± 0.02
293.15 K, x1 = 0.3003 | 763.41 ± 0.71 | 1309.6 ± 0.9 | 1.52 ± 0.02
293.15 K, x1 = 0.4009 | 768.64 ± 0.71 | 1313.9 ± 0.9 | 1.54 ± 0.02
293.15 K, x1 = 0.5001 | 774.02 ± 0.72 | 1318.6 ± 0.9 | 1.55 ± 0.02
293.15 K, x1 = 0.6 | 779.55 ± 0.72 | 1323.4 ± 1 | 1.57 ± 0.02
293.15 K, x1 = 0.7003 | 785.37 ± 0.72 | 1328.5 ± 1 | 1.6 ± 0.02
293.15 K, x1 = 0.8136 | 792.25 ± 0.72 | 1334.7 ± 1 | 1.62 ± 0.02
293.15 K, x1 = 0.9082 | 798.13 ± 0.72 | 1340.2 ± 1 | 1.66 ± 0.02
293.15 K, x1 = 1 | 804.13 ± 0.72 | 1346 ± 1.1 | 1.69 ± 0.03
298.15 K, x1 = 0.1009 | 749.9 ± 0.71 | 1282.5 ± 0.8 | –
298.15 K, x1 = 0.2001 | 754.73 ± 0.71 | 1286.2 ± 0.9 | –
298.15 K, x1 = 0.3003 | 759.79 ± 0.71 | 1290.3 ± 0.9 | –
298.15 K, x1 = 0.4009 | 765.01 ± 0.72 | 1294.6 ± 0.9 | –
298.15 K, x1 = 0.5001 | 770.39 ± 0.72 | 1299.2 ± 0.9 | –
298.15 K, x1 = 0.6 | 775.92 ± 0.72 | 1304 ± 1 | –
298.15 K, x1 = 0.7003 | 781.74 ± 0.72 | 1309.1 ± 1 | –
298.15 K, x1 = 0.8136 | 788.61 ± 0.72 | 1315.2 ± 1 | –
298.15 K, x1 = 0.9082 | 794.48 ± 0.72 | 1320.6 ± 1 | –
298.15 K, x1 = 1 | 800.48 ± 0.72 | 1326.4 ± 1.1 | –
303.15 K, x1 = 0.1009 | 746.27 ± 0.71 | 1263.2 ± 0.8 | 1.28 ± 0.02
303.15 K, x1 = 0.2001 | 751.1 ± 0.71 | 1267.1 ± 0.9 | 1.29 ± 0.02
303.15 K, x1 = 0.3003 | 756.16 ± 0.71 | 1271.2 ± 0.9 | 1.3 ± 0.02
303.15 K, x1 = 0.4009 | 761.38 ± 0.72 | 1275.4 ± 0.9 | 1.31 ± 0.02
303.15 K, x1 = 0.5001 | 766.76 ± 0.72 | 1280 ± 0.9 | 1.32 ± 0.02
303.15 K, x1 = 0.6 | 772.28 ± 0.72 | 1284.8 ± 1 | 1.34 ± 0.02
303.15 K, x1 = 0.7003 | 778.1 ± 0.72 | 1289.8 ± 1 | 1.35 ± 0.02
303.15 K, x1 = 0.8136 | 784.97 ± 0.72 | 1295.8 ± 1 | 1.38 ± 0.02
303.15 K, x1 = 0.9082 | 790.84 ± 0.72 | 1301.1 ± 1 | 1.4 ± 0.02
303.15 K, x1 = 1 | 796.82 ± 0.72 | 1306.7 ± 1.1 | 1.43 ± 0.03
313.15 K, x1 = 0.1009 | 738.99 ± 0.71 | 1225.5 ± 0.8 | 1.08 ± 0.02
313.15 K, x1 = 0.2001 | 743.83 ± 0.71 | 1229.3 ± 0.9 | 1.09 ± 0.02
313.15 K, x1 = 0.3003 | 748.88 ± 0.72 | 1233.4 ± 0.9 | 1.1 ± 0.02
313.15 K, x1 = 0.4009 | 754.1 ± 0.72 | 1237.6 ± 0.9 | 1.11 ± 0.02
313.15 K, x1 = 0.5001 | 759.47 ± 0.72 | 1242.1 ± 0.9 | 1.12 ± 0.02
313.15 K, x1 = 0.6 | 764.99 ± 0.72 | 1246.8 ± 1 | 1.14 ± 0.02
313.15 K, x1 = 0.7003 | 770.8 ± 0.72 | 1251.7 ± 1 | 1.15 ± 0.02
313.15 K, x1 = 0.8136 | 777.66 ± 0.72 | 1257.6 ± 1 | 1.17 ± 0.02
313.15 K, x1 = 0.9082 | 783.52 ± 0.72 | 1262.8 ± 1 | 1.19 ± 0.02
313.15 K, x1 = 1 | 789.49 ± 0.72 | 1268.2 ± 1.1 | 1.21 ± 0.03
323.15 K, x1 = 0.1009 | 731.68 ± 0.71 | 1188.3 ± 0.8 | 0.941 ± 0.021
323.15 K, x1 = 0.2001 | 736.51 ± 0.71 | 1192.1 ± 0.9 | 0.949 ± 0.021
323.15 K, x1 = 0.3003 | 741.57 ± 0.72 | 1196.2 ± 0.9 | 0.957 ± 0.021
323.15 K, x1 = 0.4009 | 746.79 ± 0.72 | 1200.3 ± 0.9 | 0.967 ± 0.021
323.15 K, x1 = 0.5001 | 752.16 ± 0.72 | 1204.8 ± 0.9 | 0.976 ± 0.021
323.15 K, x1 = 0.6 | 757.67 ± 0.72 | 1209.6 ± 1 | 0.988 ± 0.021
323.15 K, x1 = 0.7003 | 763.48 ± 0.72 | 1214.3 ± 1 | 1 ± 0.02
323.15 K, x1 = 0.8136 | 770.33 ± 0.72 | 1220.1 ± 1 | 1.02 ± 0.02
323.15 K, x1 = 0.9082 | 776.17 ± 0.72 | 1225.1 ± 1 | 1.03 ± 0.02
323.15 K, x1 = 1 | 782.14 ± 0.72 | 1230.5 ± 1.1 | 1.05 ± 0.03
333.15 K, x1 = 0.1009 | 724.33 ± 0.72 | 1151.9 ± 0.8 | 0.819 ± 0.021
333.15 K, x1 = 0.2001 | 729.17 ± 0.72 | 1155.8 ± 0.9 | 0.825 ± 0.021
333.15 K, x1 = 0.3003 | 734.22 ± 0.72 | 1159.8 ± 0.9 | 0.833 ± 0.021
333.15 K, x1 = 0.4009 | 739.44 ± 0.72 | 1163.9 ± 0.9 | 0.841 ± 0.021
333.15 K, x1 = 0.5001 | 744.8 ± 0.72 | 1168.3 ± 0.9 | 0.851 ± 0.021
333.15 K, x1 = 0.6 | 750.31 ± 0.72 | 1172.9 ± 1 | 0.861 ± 0.021
333.15 K, x1 = 0.7003 | 756.11 ± 0.72 | 1177.6 ± 1 | 0.871 ± 0.021
333.15 K, x1 = 0.8136 | 762.96 ± 0.72 | 1183.4 ± 1 | 0.887 ± 0.021
333.15 K, x1 = 0.9082 | 768.8 ± 0.72 | 1188.4 ± 1 | 0.897 ± 0.021
333.15 K, x1 = 1 | 774.75 ± 0.72 | 1193.5 ± 1.1 | 0.914 ± 0.031
